Assay results taken from the CheMixHub viscosity set.
± gives the uncertainty stated by the source.

Experiment: xn = mol fraction of the nth substance listed

SMILES: N#Cc1ccccc1 + ClC(Cl)(Cl)Cl
- viscosity (293.15 K, 101 kPa, x1 = 0.005): 0.986 ± 0.026 mPa·s
- viscosity (293.15 K, 101 kPa, x1 = 0.009): 1.008 ± 0.026 mPa·s
- viscosity (293.15 K, 101 kPa, x1 = 0.045): 1.005 ± 0.026 mPa·s
- viscosity (298.15 K, 101 kPa, x1 = 0.005): 0.91 ± 0.02 mPa·s
- viscosity (298.15 K, 101 kPa, x1 = 0.009): 0.934 ± 0.024 mPa·s
- viscosity (298.15 K, 101 kPa, x1 = 0.045): 0.929 ± 0.024 mPa·s
- viscosity (303.15 K, 101 kPa, x1 = 0.005): 0.845 ± 0.022 mPa·s
- viscosity (303.15 K, 101 kPa, x1 = 0.009): 0.871 ± 0.023 mPa·s
- viscosity (303.15 K, 101 kPa, x1 = 0.045): 0.863 ± 0.023 mPa·s
- viscosity (313.15 K, 101 kPa, x1 = 0.005): 0.748 ± 0.02 mPa·s
- viscosity (313.15 K, 101 kPa, x1 = 0.009): 0.772 ± 0.02 mPa·s
- viscosity (313.15 K, 101 kPa, x1 = 0.045): 0.769 ± 0.02 mPa·s
- viscosity (323.15 K, 101 kPa, x1 = 0.005): 0.669 ± 0.018 mPa·s
- viscosity (323.15 K, 101 kPa, x1 = 0.009): 0.694 ± 0.018 mPa·s
- viscosity (323.15 K, 101 kPa, x1 = 0.045): 0.691 ± 0.018 mPa·s

SMILES: O=P([O-])([O-])[O-].[K+].[K+].[K+] + O
- viscosity (298.15 K, 101 kPa, x1 = 0.0018): 0.9999 ± 0.01 mPa·s
- viscosity (298.15 K, 101 kPa, x1 = 0.0054): 1.068 ± 0.01 mPa·s
- viscosity (298.15 K, 101 kPa, x1 = 0.0089): 1.197 ± 0.01 mPa·s
- viscosity (298.15 K, 101 kPa, x1 = 0.012): 1.397 ± 0.012 mPa·s
- viscosity (298.15 K, 101 kPa, x1 = 0.016): 1.648 ± 0.014 mPa·s
- viscosity (303.15 K, 101 kPa, x1 = 0.0018): 0.8476 ± 0.0084 mPa·s
- viscosity (303.15 K, 101 kPa, x1 = 0.0054): 0.9587 ± 0.0089 mPa·s
- viscosity (303.15 K, 101 kPa, x1 = 0.0089): 1.107 ± 0.0099 mPa·s
- viscosity (303.15 K, 101 kPa, x1 = 0.012): 1.268 ± 0.011 mPa·s
- viscosity (303.15 K, 101 kPa, x1 = 0.016): 1.492 ± 0.013 mPa·s
- viscosity (308.15 K, 101 kPa, x1 = 0.0018): 0.7639 ± 0.0072 mPa·s
- viscosity (308.15 K, 101 kPa, x1 = 0.0054): 0.8485 ± 0.008 mPa·s
- viscosity (308.15 K, 101 kPa, x1 = 0.0089): 0.9715 ± 0.0094 mPa·s
- viscosity (308.15 K, 101 kPa, x1 = 0.012): 1.123 ± 0.01 mPa·s
- viscosity (308.15 K, 101 kPa, x1 = 0.016): 1.341 ± 0.012 mPa·s

SMILES: N[C@@H](CCC(=O)O)C(=O)O + O
- viscosity (293.15 K, 101.3 kPa, x1 = 0.000207): 1.004 ± 0.035 mPa·s
- viscosity (293.15 K, 101.3 kPa, x1 = 0.00038): 1.012 ± 0.035 mPa·s
- viscosity (293.15 K, 101.3 kPa, x1 = 0.00043): 1.007 ± 0.035 mPa·s
- viscosity (293.15 K, 101.3 kPa, x1 = 0.000542): 1.011 ± 0.035 mPa·s
- viscosity (293.15 K, 101.3 kPa, x1 = 0.000801): 1.021 ± 0.036 mPa·s
- viscosity (293.15 K, 101.3 kPa, x1 = 0.000855): 1.019 ± 0.036 mPa·s
- viscosity (293.15 K, 101.3 kPa, x1 = 0.0012): 1.027 ± 0.036 mPa·s
- viscosity (298.15 K, 101.3 kPa, x1 = 0.000207): 0.8955 ± 0.031 mPa·s
- viscosity (298.15 K, 101.3 kPa, x1 = 0.00038): 0.9049 ± 0.032 mPa·s
- viscosity (298.15 K, 101.3 kPa, x1 = 0.00043): 0.8994 ± 0.032 mPa·s
- viscosity (298.15 K, 101.3 kPa, x1 = 0.000542): 0.9025 ± 0.032 mPa·s
- viscosity (298.15 K, 101.3 kPa, x1 = 0.000801): 0.9086 ± 0.032 mPa·s
- viscosity (298.15 K, 101.3 kPa, x1 = 0.000855): 0.9109 ± 0.032 mPa·s
- viscosity (298.15 K, 101.3 kPa, x1 = 0.0012): 0.9194 ± 0.032 mPa·s
- viscosity (303.15 K, 101.3 kPa, x1 = 0.000207): 0.8079 ± 0.028 mPa·s
- viscosity (303.15 K, 101.3 kPa, x1 = 0.00038): 0.8164 ± 0.029 mPa·s
- viscosity (303.15 K, 101.3 kPa, x1 = 0.00043): 0.8109 ± 0.028 mPa·s
- viscosity (303.15 K, 101.3 kPa, x1 = 0.000542): 0.8148 ± 0.029 mPa·s
- viscosity (303.15 K, 101.3 kPa, x1 = 0.000801): 0.8178 ± 0.029 mPa·s
- viscosity (303.15 K, 101.3 kPa, x1 = 0.000855): 0.8217 ± 0.029 mPa·s
- viscosity (303.15 K, 101.3 kPa, x1 = 0.0012): 0.8279 ± 0.029 mPa·s
- viscosity (313.15 K, 101.3 kPa, x1 = 0.000207): 0.6741 ± 0.024 mPa·s
- viscosity (313.15 K, 101.3 kPa, x1 = 0.00038): 0.6803 ± 0.024 mPa·s
- viscosity (313.15 K, 101.3 kPa, x1 = 0.00043): 0.6764 ± 0.024 mPa·s
- viscosity (313.15 K, 101.3 kPa, x1 = 0.000542): 0.6779 ± 0.024 mPa·s
- viscosity (313.15 K, 101.3 kPa, x1 = 0.000801): 0.6818 ± 0.024 mPa·s
- viscosity (313.15 K, 101.3 kPa, x1 = 0.000855): 0.6849 ± 0.024 mPa·s
- viscosity (313.15 K, 101.3 kPa, x1 = 0.0012): 0.6903 ± 0.024 mPa·s
- viscosity (323.15 K, 101.3 kPa, x1 = 0.000207): 0.5787 ± 0.02 mPa·s
- viscosity (323.15 K, 101.3 kPa, x1 = 0.00038): 0.5857 ± 0.021 mPa·s
- viscosity (323.15 K, 101.3 kPa, x1 = 0.00043): 0.581 ± 0.02 mPa·s
- viscosity (323.15 K, 101.3 kPa, x1 = 0.000542): 0.5826 ± 0.021 mPa·s
- viscosity (323.15 K, 101.3 kPa, x1 = 0.000801): 0.5849 ± 0.021 mPa·s
- viscosity (323.15 K, 101.3 kPa, x1 = 0.000855): 0.5864 ± 0.021 mPa·s
- viscosity (323.15 K, 101.3 kPa, x1 = 0.0012): 0.5895 ± 0.021 mPa·s

SMILES: CCCOCCO + CCCO
- viscosity (298.15 K, 101.33 kPa, x1 = 0.0085): 1.95 ± 0.015 mPa·s
- viscosity (298.15 K, 101.33 kPa, x1 = 0.0212): 1.945 ± 0.016 mPa·s
- viscosity (298.15 K, 101.33 kPa, x1 = 0.0386): 1.944 ± 0.016 mPa·s
- viscosity (298.15 K, 101.33 kPa, x1 = 0.0573): 1.944 ± 0.016 mPa·s
- viscosity (298.15 K, 101.33 kPa, x1 = 0.0817): 1.943 ± 0.016 mPa·s
- viscosity (298.15 K, 101.33 kPa, x1 = 0.0917): 1.942 ± 0.016 mPa·s
- viscosity (298.15 K, 101.33 kPa, x1 = 0.1295): 1.944 ± 0.016 mPa·s
- viscosity (298.15 K, 101.33 kPa, x1 = 0.157): 1.948 ± 0.016 mPa·s
- viscosity (298.15 K, 101.33 kPa, x1 = 0.2095): 1.961 ± 0.017 mPa·s
- viscosity (298.15 K, 101.33 kPa, x1 = 0.2715): 1.976 ± 0.017 mPa·s
- viscosity (298.15 K, 101.33 kPa, x1 = 0.323): 1.994 ± 0.018 mPa·s
- viscosity (298.15 K, 101.33 kPa, x1 = 0.3675): 2.01 ± 0.018 mPa·s
- viscosity (298.15 K, 101.33 kPa, x1 = 0.4185): 2.031 ± 0.019 mPa·s
- viscosity (298.15 K, 101.33 kPa, x1 = 0.4527): 2.046 ± 0.02 mPa·s
- viscosity (298.15 K, 101.33 kPa, x1 = 0.5174): 2.072 ± 0.02 mPa·s
- viscosity (298.15 K, 101.33 kPa, x1 = 0.5743): 2.103 ± 0.021 mPa·s
- viscosity (298.15 K, 101.33 kPa, x1 = 0.6243): 2.125 ± 0.022 mPa·s
- viscosity (298.15 K, 101.33 kPa, x1 = 0.6804): 2.151 ± 0.023 mPa·s
- viscosity (298.15 K, 101.33 kPa, x1 = 0.7324): 2.186 ± 0.024 mPa·s
- viscosity (298.15 K, 101.33 kPa, x1 = 0.7821): 2.219 ± 0.025 mPa·s
- viscosity (298.15 K, 101.33 kPa, x1 = 0.853): 2.257 ± 0.026 mPa·s
- viscosity (298.15 K, 101.33 kPa, x1 = 0.9063): 2.294 ± 0.027 mPa·s
- viscosity (298.15 K, 101.33 kPa, x1 = 0.9599): 2.326 ± 0.028 mPa·s

SMILES: O=[N+]([O-])[O-].O=[N+]([O-])[O-].[Ca+2] + O
- viscosity (298.15 K, 100 kPa, x1 = 0.00575): 0.963 ± 0.03 mPa·s
- viscosity (298.15 K, 100 kPa, x1 = 0.006): 0.964 ± 0.038 mPa·s
- viscosity (298.15 K, 100 kPa, x1 = 0.01): 1.052 ± 0.042 mPa·s
- viscosity (298.15 K, 100 kPa, x1 = 0.01205): 1.051 ± 0.033 mPa·s
- viscosity (298.15 K, 100 kPa, x1 = 0.0267): 1.384 ± 0.043 mPa·s
- viscosity (298.15 K, 100 kPa, x1 = 0.03): 1.328 ± 0.052 mPa·s
- viscosity (298.15 K, 100 kPa, x1 = 0.04): 1.955 ± 0.077 mPa·s
- viscosity (298.15 K, 100 kPa, x1 = 0.04494): 1.954 ± 0.061 mPa·s
- viscosity (298.15 K, 100 kPa, x1 = 0.06819): 3.256 ± 0.1 mPa·s
- viscosity (298.15 K, 100 kPa, x1 = 0.07): 3.257 ± 0.13 mPa·s
- viscosity (323.15 K, 100 kPa, x1 = 0.00575): 0.599 ± 0.019 mPa·s
- viscosity (323.15 K, 100 kPa, x1 = 0.006): 0.599 ± 0.024 mPa·s
- viscosity (323.15 K, 100 kPa, x1 = 0.01): 0.66 ± 0.026 mPa·s
- viscosity (323.15 K, 100 kPa, x1 = 0.01205): 0.66 ± 0.021 mPa·s
- viscosity (323.15 K, 100 kPa, x1 = 0.0267): 0.852 ± 0.027 mPa·s
- viscosity (323.15 K, 100 kPa, x1 = 0.03): 0.844 ± 0.033 mPa·s
- viscosity (323.15 K, 100 kPa, x1 = 0.04): 1.207 ± 0.048 mPa·s
- viscosity (323.15 K, 100 kPa, x1 = 0.04494): 1.204 ± 0.038 mPa·s
- viscosity (323.15 K, 100 kPa, x1 = 0.06819): 1.928 ± 0.06 mPa·s
- viscosity (323.15 K, 100 kPa, x1 = 0.07): 1.931 ± 0.076 mPa·s
